What was measured:
[1] = target: Death-associated protein kinase 2 (Homo sapiens) (UniProt Q9UIK4); details: at 10 µM
[2] = target: Dual specificity protein kinase CLK3 (Homo sapiens, UniProt P49761); assay: Selectivity interaction (KinomeScan (DiscoverX)) EUB0000666a CLK3; details: at 10 µM
[3] = target: T1, Dual specificity mitogen-activated protein kinase kinase 4 (Homo sapiens) (UniProt P45985); assay: Selectivity interaction (Upstate Kinase Profiler service (Millipore)) EUB0000056c MAP2K4; details: at 1 µM
T1 sequence (whole entry): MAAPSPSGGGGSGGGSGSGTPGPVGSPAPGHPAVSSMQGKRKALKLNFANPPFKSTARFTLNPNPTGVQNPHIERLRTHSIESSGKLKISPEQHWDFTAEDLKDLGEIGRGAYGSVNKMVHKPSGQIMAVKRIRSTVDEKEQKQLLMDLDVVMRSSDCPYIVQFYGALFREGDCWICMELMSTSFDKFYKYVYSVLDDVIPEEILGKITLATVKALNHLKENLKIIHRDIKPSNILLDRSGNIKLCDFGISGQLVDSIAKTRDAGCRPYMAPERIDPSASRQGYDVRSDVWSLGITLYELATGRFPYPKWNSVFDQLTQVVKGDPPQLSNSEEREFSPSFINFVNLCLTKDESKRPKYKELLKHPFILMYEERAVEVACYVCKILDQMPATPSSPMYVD

[4] = target: Kappa-type opioid receptor (Homo sapiens, UniProt P41145); assay: Selectivity interaction (Opiate Kappa receptor assay, human recombinant ) EUB0000877a OPRK1
[5] = target: T2, Dual specificity tyrosine-phosphorylation-regulated kinase 2 (Homo sapiens) (UniProt Q92630); assay: Selectivity interaction (Kinase panel (literature)) EUB0001199aCl DYRK2; details: at 1 µM
T2 sequence (whole entry): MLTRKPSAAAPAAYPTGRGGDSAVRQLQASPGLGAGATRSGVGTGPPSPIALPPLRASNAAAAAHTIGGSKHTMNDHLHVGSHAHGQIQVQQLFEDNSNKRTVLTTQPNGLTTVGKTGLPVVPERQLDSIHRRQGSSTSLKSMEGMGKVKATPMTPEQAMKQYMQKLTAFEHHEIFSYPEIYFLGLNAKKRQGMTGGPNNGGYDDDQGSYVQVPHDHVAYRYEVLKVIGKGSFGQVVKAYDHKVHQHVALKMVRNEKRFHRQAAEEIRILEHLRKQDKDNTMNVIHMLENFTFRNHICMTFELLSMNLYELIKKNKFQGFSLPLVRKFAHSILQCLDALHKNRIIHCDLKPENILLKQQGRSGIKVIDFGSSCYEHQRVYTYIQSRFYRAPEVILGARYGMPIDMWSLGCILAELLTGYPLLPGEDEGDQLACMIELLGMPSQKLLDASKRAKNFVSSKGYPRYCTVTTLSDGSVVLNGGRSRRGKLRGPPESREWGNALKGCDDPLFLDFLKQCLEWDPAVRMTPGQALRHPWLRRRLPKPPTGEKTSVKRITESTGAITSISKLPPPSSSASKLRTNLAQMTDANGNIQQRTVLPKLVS

[6] = target: T3, Serine/threonine-protein kinase PLK4 (Homo sapiens) (UniProt O00444); assay: Selectivity interaction (KinomeScan (DiscoverX)) EUB0000607a PLK4; details: at 10 µM
T3 sequence (whole entry): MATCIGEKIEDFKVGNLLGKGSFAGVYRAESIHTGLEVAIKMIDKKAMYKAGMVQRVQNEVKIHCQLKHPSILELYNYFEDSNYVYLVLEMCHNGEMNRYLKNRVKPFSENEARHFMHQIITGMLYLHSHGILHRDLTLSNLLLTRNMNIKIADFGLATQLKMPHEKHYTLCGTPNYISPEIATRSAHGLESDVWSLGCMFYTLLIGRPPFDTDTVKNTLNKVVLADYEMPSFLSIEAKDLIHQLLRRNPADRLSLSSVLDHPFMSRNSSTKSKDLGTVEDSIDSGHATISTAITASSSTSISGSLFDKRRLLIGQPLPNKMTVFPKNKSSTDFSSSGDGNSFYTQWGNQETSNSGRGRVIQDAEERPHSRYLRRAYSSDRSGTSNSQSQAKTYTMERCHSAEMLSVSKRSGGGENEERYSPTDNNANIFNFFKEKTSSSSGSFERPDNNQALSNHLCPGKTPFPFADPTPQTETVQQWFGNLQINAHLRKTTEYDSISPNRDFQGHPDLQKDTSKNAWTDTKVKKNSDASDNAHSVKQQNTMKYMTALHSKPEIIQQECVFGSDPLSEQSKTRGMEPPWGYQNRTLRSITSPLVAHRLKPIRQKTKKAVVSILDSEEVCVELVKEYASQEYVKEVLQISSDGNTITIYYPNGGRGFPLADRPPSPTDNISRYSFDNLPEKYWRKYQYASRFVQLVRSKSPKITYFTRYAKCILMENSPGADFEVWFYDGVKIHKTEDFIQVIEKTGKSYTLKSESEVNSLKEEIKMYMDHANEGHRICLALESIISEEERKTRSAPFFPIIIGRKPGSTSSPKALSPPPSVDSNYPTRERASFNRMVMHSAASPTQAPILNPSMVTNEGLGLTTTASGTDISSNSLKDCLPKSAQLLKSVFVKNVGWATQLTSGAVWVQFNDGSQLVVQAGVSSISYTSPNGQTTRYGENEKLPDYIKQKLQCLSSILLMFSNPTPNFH

[7] = target: Platelet-derived growth factor receptor alpha (Homo sapiens, UniProt P16234); assay: Selectivity interaction (Kinase panel (Invitrogen)) EUB0000639a PDGFRA; details: at 200 nM
[8] = target: Serine/threonine-protein kinase SIK2 (Homo sapiens) (UniProt Q9H0K1); assay: Selectivity interaction (KinomeScan (DiscoverX)) EUB0000092b SIK2; details: at 10 µM
[9] = target: Serine/threonine-protein kinase 35 (Homo sapiens) (UniProt Q8TDR2); assay: Selectivity interaction (KinomeScan (DiscoverX)) EUB0000092b STK35; details: at 10 µM
[10] = target: Cyclin-dependent kinase 8 (Homo sapiens, UniProt P49336); assay: Selectivity interaction (Ambit KINOMEscan and KiNATiv profiling in Jurkat cells) EUB0000090b CDK8; assay type: cell-based; details: at 1 µM
Cyclin-dependent kinase 8, sequence (P49336 whole entry): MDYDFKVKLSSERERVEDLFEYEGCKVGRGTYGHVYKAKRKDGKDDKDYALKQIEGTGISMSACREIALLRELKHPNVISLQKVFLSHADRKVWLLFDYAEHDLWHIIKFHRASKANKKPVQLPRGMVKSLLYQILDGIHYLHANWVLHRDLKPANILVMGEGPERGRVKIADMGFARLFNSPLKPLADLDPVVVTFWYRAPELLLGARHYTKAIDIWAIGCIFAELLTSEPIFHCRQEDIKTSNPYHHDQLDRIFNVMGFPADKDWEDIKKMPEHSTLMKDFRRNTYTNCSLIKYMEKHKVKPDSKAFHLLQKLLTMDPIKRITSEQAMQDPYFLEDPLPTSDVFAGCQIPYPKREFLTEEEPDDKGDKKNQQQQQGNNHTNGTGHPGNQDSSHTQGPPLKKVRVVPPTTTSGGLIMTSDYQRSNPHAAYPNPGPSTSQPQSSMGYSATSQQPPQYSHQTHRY

Platelet-derived growth factor receptor alpha, sequence (P16234 whole entry): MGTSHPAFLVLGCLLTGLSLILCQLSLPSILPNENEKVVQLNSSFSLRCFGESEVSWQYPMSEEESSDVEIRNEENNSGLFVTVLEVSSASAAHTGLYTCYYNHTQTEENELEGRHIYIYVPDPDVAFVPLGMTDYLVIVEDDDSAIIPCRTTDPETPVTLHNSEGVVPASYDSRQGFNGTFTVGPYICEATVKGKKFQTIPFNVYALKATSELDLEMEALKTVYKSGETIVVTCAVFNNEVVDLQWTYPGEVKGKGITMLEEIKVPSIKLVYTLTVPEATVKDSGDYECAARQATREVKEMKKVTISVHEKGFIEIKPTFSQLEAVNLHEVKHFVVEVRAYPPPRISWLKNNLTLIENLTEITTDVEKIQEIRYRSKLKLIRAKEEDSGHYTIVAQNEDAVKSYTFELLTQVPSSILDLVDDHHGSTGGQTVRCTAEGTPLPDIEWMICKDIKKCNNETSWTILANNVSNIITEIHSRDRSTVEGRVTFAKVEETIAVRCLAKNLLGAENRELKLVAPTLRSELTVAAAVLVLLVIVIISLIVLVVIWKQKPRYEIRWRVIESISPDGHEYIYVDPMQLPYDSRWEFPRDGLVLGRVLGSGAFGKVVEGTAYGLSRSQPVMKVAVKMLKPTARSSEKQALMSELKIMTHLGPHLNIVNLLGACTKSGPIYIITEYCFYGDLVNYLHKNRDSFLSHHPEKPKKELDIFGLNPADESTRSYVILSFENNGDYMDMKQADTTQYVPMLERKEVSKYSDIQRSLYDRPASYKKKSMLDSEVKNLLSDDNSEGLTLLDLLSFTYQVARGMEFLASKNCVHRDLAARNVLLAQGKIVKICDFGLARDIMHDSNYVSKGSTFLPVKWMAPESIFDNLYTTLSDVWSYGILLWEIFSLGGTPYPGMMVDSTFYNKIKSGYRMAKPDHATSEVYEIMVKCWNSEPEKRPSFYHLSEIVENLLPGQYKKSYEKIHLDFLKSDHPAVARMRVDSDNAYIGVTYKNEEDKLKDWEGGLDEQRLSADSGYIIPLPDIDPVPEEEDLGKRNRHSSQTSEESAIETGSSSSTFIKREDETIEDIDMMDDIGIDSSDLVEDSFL
Dual specificity protein kinase CLK3, sequence (P49761 whole entry, looked up): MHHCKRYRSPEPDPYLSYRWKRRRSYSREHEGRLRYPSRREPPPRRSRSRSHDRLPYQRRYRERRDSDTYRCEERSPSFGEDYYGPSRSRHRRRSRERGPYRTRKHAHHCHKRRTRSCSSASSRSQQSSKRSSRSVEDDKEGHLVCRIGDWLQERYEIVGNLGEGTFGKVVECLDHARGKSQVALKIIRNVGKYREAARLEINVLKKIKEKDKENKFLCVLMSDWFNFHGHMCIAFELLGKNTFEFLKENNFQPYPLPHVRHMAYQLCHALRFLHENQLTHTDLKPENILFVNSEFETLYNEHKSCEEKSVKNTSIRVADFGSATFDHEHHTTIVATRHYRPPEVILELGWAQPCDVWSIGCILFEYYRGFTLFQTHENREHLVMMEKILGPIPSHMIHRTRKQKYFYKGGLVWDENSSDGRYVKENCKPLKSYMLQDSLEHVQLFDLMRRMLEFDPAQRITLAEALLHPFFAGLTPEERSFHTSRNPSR
Death-associated protein kinase 2 (Homo sapiens), sequence (Q9UIK4 whole entry, looked up): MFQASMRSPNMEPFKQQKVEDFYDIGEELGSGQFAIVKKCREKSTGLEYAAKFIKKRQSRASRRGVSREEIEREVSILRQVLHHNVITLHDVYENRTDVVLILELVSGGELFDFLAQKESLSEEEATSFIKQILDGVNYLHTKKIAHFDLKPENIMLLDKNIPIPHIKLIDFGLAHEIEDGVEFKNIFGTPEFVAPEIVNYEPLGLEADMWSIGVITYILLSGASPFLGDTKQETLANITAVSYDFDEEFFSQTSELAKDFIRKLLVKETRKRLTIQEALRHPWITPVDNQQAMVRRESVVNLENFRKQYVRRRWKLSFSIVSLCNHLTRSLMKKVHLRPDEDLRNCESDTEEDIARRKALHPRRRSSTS
Serine/threonine-protein kinase SIK2 (Homo sapiens), sequence (Q9H0K1 whole entry, looked up): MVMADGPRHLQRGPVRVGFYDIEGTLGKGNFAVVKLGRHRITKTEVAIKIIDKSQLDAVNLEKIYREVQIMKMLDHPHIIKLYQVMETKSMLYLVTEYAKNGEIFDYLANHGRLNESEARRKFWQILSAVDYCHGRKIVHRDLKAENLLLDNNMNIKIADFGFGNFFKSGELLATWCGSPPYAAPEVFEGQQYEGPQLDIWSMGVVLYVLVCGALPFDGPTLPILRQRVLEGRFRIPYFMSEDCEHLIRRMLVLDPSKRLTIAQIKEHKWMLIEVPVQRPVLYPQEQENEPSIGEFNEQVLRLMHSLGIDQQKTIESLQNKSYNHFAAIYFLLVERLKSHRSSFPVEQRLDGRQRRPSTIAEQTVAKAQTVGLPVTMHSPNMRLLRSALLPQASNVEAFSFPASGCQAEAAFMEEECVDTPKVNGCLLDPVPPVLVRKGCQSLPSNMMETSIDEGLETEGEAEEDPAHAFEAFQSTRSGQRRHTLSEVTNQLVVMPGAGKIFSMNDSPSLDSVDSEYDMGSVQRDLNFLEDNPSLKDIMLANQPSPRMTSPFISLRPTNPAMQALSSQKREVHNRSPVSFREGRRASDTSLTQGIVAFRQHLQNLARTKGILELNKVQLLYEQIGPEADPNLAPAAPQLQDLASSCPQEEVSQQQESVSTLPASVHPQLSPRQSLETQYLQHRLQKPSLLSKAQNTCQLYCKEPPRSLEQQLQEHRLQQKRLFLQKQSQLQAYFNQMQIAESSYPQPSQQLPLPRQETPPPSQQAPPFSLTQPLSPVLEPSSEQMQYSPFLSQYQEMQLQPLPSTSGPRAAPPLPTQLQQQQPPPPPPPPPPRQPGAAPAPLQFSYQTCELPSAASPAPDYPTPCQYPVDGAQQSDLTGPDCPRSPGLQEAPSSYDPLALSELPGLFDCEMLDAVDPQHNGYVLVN
Serine/threonine-protein kinase 35 (Homo sapiens), sequence (Q8TDR2 whole entry): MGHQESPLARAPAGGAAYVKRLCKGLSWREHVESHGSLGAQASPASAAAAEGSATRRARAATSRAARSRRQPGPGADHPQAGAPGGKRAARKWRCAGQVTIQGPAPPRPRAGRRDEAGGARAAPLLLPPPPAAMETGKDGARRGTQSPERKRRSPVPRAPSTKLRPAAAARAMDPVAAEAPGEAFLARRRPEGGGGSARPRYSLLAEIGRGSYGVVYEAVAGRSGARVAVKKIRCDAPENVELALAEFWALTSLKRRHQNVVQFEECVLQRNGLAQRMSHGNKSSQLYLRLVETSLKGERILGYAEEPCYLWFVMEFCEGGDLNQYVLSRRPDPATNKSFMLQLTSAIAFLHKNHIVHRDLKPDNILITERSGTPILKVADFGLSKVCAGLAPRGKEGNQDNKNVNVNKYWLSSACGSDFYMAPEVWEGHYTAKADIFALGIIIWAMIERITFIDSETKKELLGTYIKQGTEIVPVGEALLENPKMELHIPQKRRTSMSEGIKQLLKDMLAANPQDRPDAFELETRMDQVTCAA
Kappa-type opioid receptor, sequence (P41145 whole entry): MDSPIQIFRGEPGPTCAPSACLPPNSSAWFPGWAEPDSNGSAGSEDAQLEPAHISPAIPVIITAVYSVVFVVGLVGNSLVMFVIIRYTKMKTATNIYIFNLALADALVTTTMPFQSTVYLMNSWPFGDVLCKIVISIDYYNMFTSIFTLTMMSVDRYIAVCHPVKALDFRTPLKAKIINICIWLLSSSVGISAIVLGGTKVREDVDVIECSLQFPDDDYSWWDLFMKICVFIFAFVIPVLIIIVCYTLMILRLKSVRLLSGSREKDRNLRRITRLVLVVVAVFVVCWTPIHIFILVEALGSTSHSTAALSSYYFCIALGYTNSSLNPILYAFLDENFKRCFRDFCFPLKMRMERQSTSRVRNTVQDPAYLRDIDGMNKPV

With `COCC(=O)NC/C=C/c1ccc2ncnc(Nc3ccc(Oc4ccc(C)nc4)c(C)c3)c2c1` [CP-724714] the % of control [1] was 89%.
For `O=C(NOC[C@H](O)CO)c1ccc(F)c(F)c1Nc1ccc(I)cc1F`, the % of control [2] was 100%.
`Cc1ccc(-c2ccc3c(ccc4sc5c(c43)NC[C@@H](C)NC5=O)n2)cn1` gave a % of inhibition [3] of 19%.
In the case of `CCC(=O)N1CC[C@H](Nc2ncnc3c2CN(c2cnc(OC)c(C(F)(F)F)c2)CC3)C1` [LENIOLISIB], the IC50 [4] is reported as > 30 µM.
`CN1Cc2nccc(-c3cn(C)nc3-c3ccc(F)cc3)c2C1=O` showed a % of inhibition [5] of 13%.
`CNC(=O)Nc1ccc(-c2nc(N3CC4CCC(C3)O4)c3cnn(C4CCC5(CC4)OCCO5)c3n2)cc1` showed a % of control [6] of 75%.
For `CC[C@@H]1[C@H](F)C(=O)N[C@@H]1COc1nccc2cc(C(N)=O)c(OC)cc12` [ZIMLOVISERTIB], the % of inhibition [7] was -0.518%.
`CCC(=O)N1CCN(c2ccc(-n3c(=O)ccc4cnc5ccc(-c6cnc7ccccc7c6)cc5c43)cc2C(F)(F)F)CC1` gave a % of control [8] of 23% and a % of control [9] of 18%.
`CN(C)C/C=C/C(=O)Nc1ccc(C(=O)N2CCCC(Nc3ncc(Cl)c(-c4c[nH]c5ccccc45)n3)C2)cc1` (stereo not given) gave a % of control [10] of 100%.
